Data as given in US20240216410A1, “METHODS AND COMPOSITIONS FOR TREATING CANCER THERAPY-INDUCED NEUTROPENIC FEVER AND/OR GVHD” (BOARD OF REGENTS, THE UNIVERSITY OF TEXAS SYSTEM, priority 2021, published 2024).

What was measured:
[1] = system: intestinal microbiota; test: Murine GVHD model: fecal microbiome composition (16S rRNA sequencing) and bacterial density (qPCR); type: in vivo, mice; conditions: day 20; meropenem-treated mice with or without oral xylose 0.5% days 13 to 20
Protocol: Effects of meropenem treatment on the composition of the intestinal microbiota of allo-HSCT mice were also examined (FIG. 15F).
Sequencing of 16S rRNA gene amplicons. Fecal samples from patients and mice were weighed before DNA isolation. In brief, genomic DNA was isolated using the QIAAMP® DNA mini kit (51306, QIAGEN®) according to the manufacturer's protocol that was modified to include an intensive bead-beating lysis step. The V4 region of 16S rRNA gene was amplified by PCR from 100 ng of each of extracted and purified genomic DNA using 515 forward and 806 reverse primer pairs (59). The quality and quantity of the barcoded amplicons were assessed on an Agilent 4200 TapeStation system (Agilent) and QUBIT™ Fluorometer (THERMO FISHER […]™), and libraries were prepared after pooling at equimolar ratios. The final libraries were purified using […]® gel extraction kit (28706X4, QIAGEN®) and sequenced with a 2×250 base pair paired-end protocol on the […]® MISEQ™ platform.
Microbiome data analysis. Sequencing data from paired-end reads were de-multiplexed using QIIME 2 (60). Merging of paired-end reads, dereplicating, and length filtering was performed using VSEARCH 2.17.1 (61). Following de-noising and chimera calling using the unoise3 command (62), unique sequences were taxonomically classified with mothur (63) using the Silva database (64) version 138. Weighted UniFrac distances (65) were determined using QIIME 2, visualized using principal coordinate analysis, and evaluated for statistical significance using permutational multivariate analysis of variance (PERMANOVA) testing. For differential abundance analysis, abundances of sequences belonging to taxonomical groups were included for analysis using the Mann-Whitney U test and adjusted for multiple comparisons using the method of Benjamini and Hochberg. Paired samples were analyzed using the Wilcoxon signed rank test with adjustment for multiple comparisons.
Quantification of fecal bacterial density. Genomic DNA was isolated from stool as described above. qPCR was performed as previously described (66). In brief, 16S rRNA gene sequences were amplified from total fecal DNA using the primers 926F (5′-[…]-3′, where K is a G or a T; SEQ ID NO:2) and 1062R (5′-[…]-3′, where R is an A or a G; SEQ ID NO:3). Real-time PCR were carried out in 96-well optical plates on QUANTSTUDIO™ Flex 6 RT PCR (APPLIED BIOSYSTEMS™) and KAPA SYBR® FAST Master Mix (Roche). The PCR conditions included one initial denaturing step of 10 min at 95° C. and 40 cycles of 95° C. for 20 sec and 60 °C for 1 min. Melting-curve analysis was performed after amplification. To determined bacterial density, a plasmid with a 16S rRNA gene of a murine Blautia isolate was generated in the pCR4 backbone and used as a standard.

[2] = system: colonic mucus layer; test: Murine GVHD model: colonic mucus layer thickness (PAS staining); type: in vivo, mice; conditions: day 20; xylose days 13 to 20 vs GVHD mice receiving meropenem alone
Protocol: Next, assessed was the impact of meropenem treatment on the dense colonic mucus layer of mice with GVHD.
Allo-HSCT recipient mice were treated with meropenem as in FIG. 15A and with xylose from days 13 to 20 (FIG. 18F). […] Importantly, in vitro, growth of mouse and human-derived BT in carbohydrate-poor media was augmented by xylose (FIG. 23B).
Xylose administration. D-(+)-xylose (X3877, SIGMA-ALDRICH®) was dissolved in phosphate buffer pH 8.0 with meropenem or in water without meropenem and given at a concentration of 0.5% from days 13 to 20 after allo-HSCT.
Histological and immunohistochemistry analysis. […] Pathology scores were quantified by a blinded pathologist. […] Sections were imaged using an APERIO® AT2.

[3] = system: BT (MDA-JAX BT001); test: Mucin degradation assay of BT in porcine gastric mucin medium with monosaccharides; type: cell-based, Bacteroides thetaiotaomicron; conditions: monosaccharide added at 15 hours, further 3 hours
Protocol: (§1) To examine the effects of the presence of monosaccharides on mucin utilization by BT, BT was cultivated in bacterial media containing porcine gastric mucin, a panel of monosaccharides was subsequently added, including arabinose and xylose, and levels of remaining mucin were quantified using a colorimetric assay (FIG. 18C). In the absence of additional monosaccharides, BT readily metabolized porcine gastric mucin.
Bacteria were cultured up to 48 hours at a starting concentration of 1×10^6 bacteria/ml in BYEM10 broth (pH 7.2) with and without 5 mg/ml of porcine gastric mucin (M1778, Sigma-Aldrich). Optical densities (OD600 nm) of bacterial cultures were measured with a BioTek EPOCH™ 2 plate reader.
Mucin degradation assay. Levels of mucin glycans in culture supernatants were determined by a PAS-based colorimetric assay as previously described (67) with minor modifications. Briefly, culture supernatants were centrifuged at 20,000 g, 4° C. for 10 minutes and collected. To perform mucin precipitation, 500 μL of culture supernatants were mixed with 1 mL of molecular grade ethanol and incubated at −30° C. overnight. Culture supernatants were centrifuged at 20,000 g, 4° C. for 10 minutes. Mucin-containing pellets were washed with 1 mL of molecular grade ethanol twice and resuspended in 500 μL of PBS. […] Absorbance was measured at 550 nm using a BioTek SYNERGY™ HTX plate reader.

[4] = system: murine BT GH2 β-galactosidase, GH33 sialidase, GH29 α-L-fucosidase; test: Quantitative real-time PCR of GH2, GH29 and GH33 BT loci; type: cell-based, Bacteroides thetaiotaomicron; conditions: BT cultured with or without monosaccharides
Description: as §1
Quantitative real-time PCR analysis of BT loci. Total RNA was isolated from in vitro cultured BT as described above. The cDNA was synthesized using a High-Capacity cDNA Reverse Transcription Kit (4368814, APPLIED BIOSYSTEMS™). The mRNA levels of selected targets were quantified by qPCR using KAPA SYBR® FAST Master Mix (Roche) and specific probes (GH2, 5′-[…]-3′ (SEQ ID NO:4) for the forward primer, 5′-[…]-3′ (SEQ ID NO:5) for the reverse primer; GH29, 5′-[…]-3′ (SEQ ID NO:6) for the forward primer, 5′-[…]-3′ (SEQ ID NO:7) for the reverse primer; GH33, 5′-[…]-3′ (SEQ ID NO:8) for the forward primer, 5′-[…]-3′ (SEQ ID NO:9) for the reverse primer) and were normalized to BT specific probes (5′-[…]-3′ (SEQ ID NO:10) for the forward primer, 5′-[…]-3′ (SEQ ID NO:11) for the reverse primer) (75).

[5] = system: mouse and human-derived BT; test: Growth of BT in carbohydrate-poor media with monosaccharide; type: cell-based, Bacteroides thetaiotaomicron; conditions: OD600 nm up to 30 hours
Protocol: Allo-HSCT recipient mice were treated with meropenem as in FIG. 15A and with xylose from days 13 to 20 (FIG. 18F). […] Importantly, in vitro, growth of mouse and human-derived BT in carbohydrate-poor media was augmented by xylose (FIG. 23B). […] Bacteria were cultured up to 48 hours at a starting concentration of 1×10^6 bacteria/ml in BYEM10 broth (pH 7.2) with and without 5 mg/ml of porcine gastric mucin ([…], Sigma-Aldrich). Optical densities (OD600 nm) of bacterial cultures were measured with a BioTek EPOCHTM 2 plate reader.

In the case of O=C[C@H](O)[C@@H](O)[C@H](O)CO [xylose, D-(+)-xylose], the “relative abundances of BT” value [1] is reported as “not significantly different”, the colonic mucus thickness [2] is reported as “prevented thinning of the colonic mucus thickness” and the “mucin utilization by BT” value [3] is reported as “significantly suppressed”. For the same compound, the “expression of GH2 β-galactosidase by murine BT” value [4] was “not significantly impacted”, the “expression of GH33 sialidase and GH29 α-L-fucosidase by murine BT” value [4] was “suppressed” and the “growth of BT in carbohydrate-poor media” value [5] was “augmented”.
